Reference: ChEMBL document CHEMBL1131377, “Novel 5-(3-aryl-2-propynyl)-5-(arylsulfonyl)thiazolidine-2,4-diones as antihyperglycemic agents” (1998)

Tests used:
Type in all cases: functional
[1] = tested on: Mus musculus; assay: Percent decrease in glucose of db/db mouse was measured at 100 mg/kg/day dosage.
[2] = tested on: Mus musculus; assay: Percent decrease in glucose of db/db mouse was measured at 20 mg/kg/day dosage
[3] = tested on: Mus musculus; assay: % decrease in insulin of 4 day ob/ob mouse was measured at 50 mg/kg/day dosage.
[4] = tested on: Mus musculus; assay: % decrease in glucose of 4 day ob/ob mouse was measured at 50 mg/kg/day dosage.
[5] = tested on: Mus musculus; assay: % decrease in glucose of 4 day ob/ob mouse was measured at 100 mg/kg/day dosage.
[6] = tested on: Mus musculus; assay: % decrease in insulin of 4 day ob/ob mouse was measured at 100 mg/kg/day dosage.

Compound | Decrease [1] [%] | Decrease [2] [%] | further results
O=C1NC(=O)C(CC#Cc2ccccc2)(S(=O)(=O)c2ccccc2)S1 (configuration not stated) | <15 | – | –
O=C1NC(=O)C(CC#Cc2ccccc2)(S(=O)(=O)c2ccc(Cl)cc2)S1 (configuration not stated) | 36 | – | –
O=C1NC(=O)C(S(=O)(=O)c2ccc3ccccc3c2)S1 (configuration not stated) | 21 | – | –
Cc1cccc(S(=O)(=O)C2(CC#Cc3ccc(Cl)cc3)SC(=O)NC2=O)n1 (configuration not stated) | <15 | <15 | –
O=C1NC(=O)C(CC#Cc2ccc(OC(F)(F)F)cc2)(S(=O)(=O)c2ccc(F)cc2)S1 (configuration not stated) | 56 | <15 | –
O=C1NC(=O)C(CC#Cc2ccc(F)cc2)(S(=O)(=O)c2ccccc2)S1 (configuration not stated) | 58 | <15 | –
O=C1NC(=O)C(CC#Cc2ccc(Br)cc2)(S(=O)(=O)c2ccc(F)cc2)S1 (configuration not stated) | 70 | <15 | –
Cc1ccc(S(=O)(=O)C2(CC#Cc3ccccc3Cl)SC(=O)NC2=O)cc1 (configuration not stated) | 30 | – | –
O=C1NC(=O)C(CC#Cc2ccccc2)(S(=O)(=O)c2ccc(Br)cc2)S1 (configuration not stated) | 43 | <15 | –
Cc1ccc(SC2(CC#Cc3ccc(Cl)cc3)SC(=O)NC2=O)cc1 (configuration not stated) | 27 | – | –
O=C1NC(=O)C(CC#Cc2ccc(Cl)cc2)(S(=O)(=O)c2ccc(Cl)cc2)S1 (configuration not stated) | 70 | 18 | Decrease [3]: 56%; Decrease [4]: 47%
CC1(COc2ccc(CC3SC(=O)NC3=O)cc2)CCCCC1 (configuration not stated) [CIGLITAZONE] | 32 | <15 | Decrease [5]: 43%; Decrease [6]: 39%
CSc1ccc(C#CCC2(S(=O)(=O)c3ccc(F)cc3)SC(=O)NC2=O)cc1 (configuration not stated) | <15 | – | –
COc1ccc(S(=O)(=O)C2(CC#Cc3ccc(Cl)cc3)SC(=O)NC2=O)cc1 (configuration not stated) | 45 | <15 | –
Cc1cccc(S(=O)(=O)C2(CC#Cc3ccccc3)SC(=O)NC2=O)c1 (configuration not stated) | 48 | <15 | –
O=C1NC(=O)C(CC#Cc2ccc(C(F)(F)F)cc2)(S(=O)(=O)c2ccc(Cl)cc2)S1 (configuration not stated) | 37 | – | –
O=C1NC(=O)C(CC#Cc2ccc(Cl)cc2)(Sc2ccc(F)cc2)S1 (configuration not stated) | <15 | – | –
Cc1ccc(S(=O)(=O)C2(CC#Cc3cc(C(F)(F)F)cc(C(F)(F)F)c3)SC(=O)NC2=O)cc1 (configuration not stated) | 22 | – | –
O=C1NC(=O)C(CC#Cc2cccc(Cl)c2)(S(=O)(=O)c2ccccc2)S1 (configuration not stated) | <15 | – | –

Compound | Decrease [1] [%] | Decrease [2] [%] | further results
COc1ccc(C#CCC2(S(=O)(=O)c3ccc(C)cc3)SC(=O)NC2=O)cc1 (configuration not stated) | <15 | – | –
Cc1ccc(S(=O)(=O)C2(CC#Cc3ccccc3)SC(=O)NC2=O)cc1 (configuration not stated) | 43 | 23 | –
O=C1NC(=O)C(CC#Cc2ccc(F)cc2)(S(=O)(=O)c2ccc(Cl)cc2)S1 (configuration not stated) | 54 | <15 | –
O=C1NC(=O)C(CC#Cc2ccc(C(F)(F)F)cc2)(S(=O)(=O)c2ccccc2)S1 (configuration not stated) | 59 | <15 | –
Cc1ccc(C#CCC2(S(=O)(=O)c3ccc(C)cc3)SC(=O)NC2=O)cc1 (configuration not stated) | 28 | – | –
COc1ccc(S(=O)(=O)C2(CC#Cc3ccccc3)SC(=O)NC2=O)cc1 (configuration not stated) | 21 | – | –
O=C1NC(=O)C(CC#Cc2ccc(Cl)cc2)(Sc2ccc3ccccc3n2)S1 (configuration not stated) | <15 | – | –
O=C1NC(=O)C(CC#Cc2cc(C(F)(F)F)cc(C(F)(F)F)c2)(S(=O)(=O)c2ccccc2)S1 (configuration not stated) | 54 | 21 | –
O=C1NC(=O)C(CC#Cc2ccc(Cl)cc2)(Sc2ccccn2)S1 (configuration not stated) | <15 | – | –
O=C1NC(=O)C(CC#Cc2ccc(Cl)cc2)(S(=O)(=O)c2ccccc2)S1 (configuration not stated) | 52 | 21 | Decrease [5]: 40%; Decrease [6]: 65%
O=C1NC(=O)C(CC#Cc2ccc(Br)cc2)(S(=O)(=O)c2ccc(Cl)cc2)S1 (configuration not stated) | 68 | <15 | –
O=C1NC(=O)C(CC#Cc2ccc(F)cc2)(S(=O)(=O)c2ccccn2)S1 (configuration not stated) | 67 | 36 | Decrease [3]: 54%; Decrease [4]: 44%
Cc1ccc(S(=O)(=O)C2(CC#Cc3ccc(Cl)cc3)SC(=O)NC2=O)cc1 (configuration not stated) | 35 | – | –
O=C1NC(=O)C(CC#Cc2ccccc2)(S(=O)(=O)c2ccc(F)cc2)S1 (configuration not stated) | 26 | – | –
O=C1NC(=O)C(CC#Cc2ccc(Cl)cc2)(S(=O)(=O)c2ccc3ccccc3c2)S1 (configuration not stated) | 20 | – | –
Cc1ccc(C#CCC2(S(=O)(=O)c3ccccc3)SC(=O)NC2=O)cc1 (configuration not stated) | <15 | – | –
O=C1NC(=O)C(CC#Cc2ccc(Br)cc2)(S(=O)(=O)c2ccccc2)S1 (configuration not stated) | 53 | <15 | –
O=C1NC(=O)C(CC#Cc2ccc(Cl)cc2)(S(=O)(=O)c2ccc3ccccc3n2)S1 (configuration not stated) | – | <15 | –
Cc1ccc(S(=O)(=O)C2(CC#Cc3cccc(Cl)c3)SC(=O)NC2=O)cc1 (configuration not stated) | 30 | – | –

Compound | Decrease [1] [%] | Decrease [2] [%] | further results
O=C1NC(=O)C(CC#Cc2ccc(Cl)cc2)(S(=O)(=O)c2ccccn2)S1 (configuration not stated) | 55 | 38 | –
COc1ccc(C#CCC2(S(=O)(=O)c3ccccc3)SC(=O)NC2=O)cc1 (configuration not stated) | 25 | – | –
O=C1NC(=O)C(CC#Cc2cc(C(F)(F)F)cc(C(F)(F)F)c2)(S(=O)(=O)c2ccccn2)S1 (configuration not stated) | – | <15 | –
O=C1NC(=O)C(CC#Cc2ccc(C(F)(F)F)cc2)(S(=O)(=O)c2ccc(F)cc2)S1 (configuration not stated) | 52 | <15 | –
Cc1ccc(S(=O)(=O)C(CC#Cc2ccc(Cl)cc2)C(=O)O)cc1 (configuration not stated) [TIBEGLISENE] | 30 | – | Decrease [3]: 54%; Decrease [4]: <15%
O=C1NC(=O)C(CC#Cc2ccc(Cl)cc2)(S(=O)(=O)c2ccc(F)cc2)S1 (configuration not stated) | 79 | 31 | –
O=C1NC(=O)C(CC#Cc2ccc(Cl)cc2)(Sc2ccccc2)S1 (configuration not stated) | <15 | – | –
O=C1NC(=O)C(CC#Cc2ccc(F)cc2)(S(=O)(=O)c2ccc(Br)cc2)S1 (configuration not stated) | 64 | <15 | –
Cc1ccc(S(=O)(=O)C2(CC#Cc3ccc(C(F)(F)F)cc3)SC(=O)NC2=O)cc1 (configuration not stated) | 36 | <15 | –
O=C1NC(=O)C(CC#Cc2ccccc2)(S(=O)(=O)c2ccc3ccccc3c2)S1 (configuration not stated) | 24 | – | –
O=C1NC(=O)C(CC#Cc2ccc(F)cc2)(S(=O)(=O)c2ccc(F)cc2)S1 (configuration not stated) | 57 | 25 | –
O=C1NC(=O)C(CC#Cc2ccc(F)c(F)c2)(S(=O)(=O)c2ccc(F)cc2)S1 (configuration not stated) | 33 | – | –
O=C1NC(=O)C(CC#Cc2ccc(Cl)cc2)(S(=O)(=O)c2ccc(Br)cc2)S1 (configuration not stated) | 69 | <15 | Decrease [3]: 69%; Decrease [4]: 36%
Cc1ccc(S(=O)(=O)C2(CC#Cc3ccc(Br)cc3)SC(=O)NC2=O)cc1 (configuration not stated) | 51 | 23 | –
Cc1cccc(S(=O)(=O)C2(CC#Cc3ccc(Cl)cc3)SC(=O)NC2=O)c1 (configuration not stated) | 33 | – | –
O=C1NC(=O)C(CC#Cc2ccc(Cl)cc2)(Sc2ccc(Cl)cc2)S1 (configuration not stated) | 24 | – | –
Cc1cccc(SC2(CC#Cc3ccc(Cl)cc3)SC(=O)NC2=O)n1 (configuration not stated) | <15 | – | –
O=C1NC(=O)C(CC#Cc2ccccc2Cl)(S(=O)(=O)c2ccccc2)S1 (configuration not stated) | <15 | – | –
Cc1ccc(S(=O)(=O)C2(CC#Cc3ccc(F)cc3)SC(=O)NC2=O)cc1 (configuration not stated) | 65 | <15 | Decrease [3]: 30%; Decrease [4]: 30%
